From patent US11679107B2 (Eisai R&D Management Co., Ltd., priority 2018, dated 2023)
Where two headings read alike, the source gives them in different places.

How the values were obtained:
[1] = molecular target: T1, SF3b complexes (Homo sapiens, UniProt O75533+Q7RTV0); experiment: Scintillation proximity assay (SPA) with [3H]-labelled pladienolide probe; assay type: binding; settings: SF3B1 (WT); geometric mean; read-out: SPA-ATS GMean IC50 (nM) SF3B1 (WT)
T1 construct: endogenous in cells; host or cells: Nuclear extracts; A HeLa S3 extract preparation is described for the in vitro splicing assay
How it was run: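 SF3b complexes captured from nuclear extracts on anti-SF3B1 antibody SPA beads; test compounds pre-incubated 30 min before 2.5 nM [3H]-pladienolide probe added, then 30 min incubation. Bound probe read by scintillation; values from non-linear regression of concentration–response curves.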

[2] = tested on: Ad2 variant pre-mRNAs spliced in HeLa S3 nuclear extracts; experiment: In vitro splicing assay (IVS), RT-qPCR of spliced product; assay type: biochemical; settings: for IC50: geometric mean; for Ratio Ad2.1/2.2: ratio of IVS IC50 Ad2.1 to Ad2.2
How it was run: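 Read-out is one-step TaqMan RT-qPCR of spliced Ad2 mRNA with Ftz as reference, normalized to DMSO and fit by non-linear regression. Reactions held HeLa S3 nuclear extract, 2 ng Ad2-derived pre-mRNA and test compound, with 15 min preincubation. Splicing was started with ATP-containing activation buffer and run 90 min at 30 °C.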

[3] = tested on: Panc 05.04 cells (SF3b K700E mutant); experiment: Cell proliferation and viability, CellTiter-Glo, 72 hours; assay type: cell-based; settings: for GI50: geometric mean
How it was run: (§1)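 ATP luminescence (CellTiter-Glo) was measured 72 h after treatment with compound at 10 μM–100 pM (11 points, half-log) in 0.1% DMSO. The Panc line was grown in RPMI-1640 plus insulin and 15% FBS, the other in 10% FBS. Data were normalised to time zero and vehicle controls, where −100% is cidal and 0% static.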

[4] = tested on: NCI-H1568 cells (high MCL1); experiment: as above; assay type: cell-based; settings: for GI50: geometric mean
How it was run: as §1

[5] = Ad2.1 pre-mRNA substrate, read-out: qPCR-IVS-ATS GMean IC50 (nM) Ad2.1
[6] = Ad2.2 pre-mRNA substrate, read-out: qPCR-IVS-ATS GMean IC50 (nM) Ad2.2
[7] = PANC0504.1 cells, 72 h, −100% cidal, 0% static, 100% maximal growth
[8] = Panc 05.04, read-out: CTGlo-ATS GMean GI50 (nM) 72 h PANC0504.1, PANC0504.1 cells, 72 h
[9] = NCI-H1568, read-out: CTGlo-ATS GMean GI50 (nM) 72 h NCIH1568.1, NCIH1568.1 cells, 72 h
[10] = NCIH1568.1 cells, 72 h, −100% cidal, 0% static, 100% maximal growth
[11] = 72 h, PANC0504.1, -100% = cidal, 0% = static, 100% = uninhibited growth
[12] = Panc 05.04, read-out: CTGlo-ATS GMean GI50 (nM) 72 h PANC0504.1, 72 h, PANC0504.1
[13] = 72 h, NCIH1568.1, -100% = cidal, 0% = static, 100% = uninhibited growth
[14] = NCI-H1568, read-out: CTGlo-ATS GMean GI50 (nM) 72 h NCIH1568.1, 72 h, NCIH1568.1
[15] = Panc 05.04, 72 h, read-out: CTGlo-ATS GMean GI50 (nM) 72 h PANC0504.1, PANC0504.1 cells, 72 h
[16] = NCI-H1568, 72 h, read-out: CTGlo-ATS GMean GI50 (nM) 72 h NCIH1568.1, NCIH1568.1 cells, 72 h

Structure (SMILES)	IC50 [1]	IC50 [2, 5]	IC50 [2, 6]	CTGlo-ATS Mean MinResponse % 72 h PANC0504.1 [3, 7]	GI50 [3, 8]	GI50 [4, 9]	CTGlo-ATS Mean MinResponse % 72 h NCIH1568.1 [4, 10]	Ratio Ad2.1/2.2 [2]	CTGlo-ATS Mean MinResponse % 72 h PANC0504.1 [3, 11]	GI50 [3, 12]	CTGlo-ATS Mean MinResponse % 72 h NCIH1568.1 [4, 13]	GI50 [4, 14]	GI50 [3, 15]	GI50 [4, 16]
CN[C@H]1CCN(c2cc(F)cc(/C=C(\C)[C@H]3OC(=O)C[C@H](O)CC[C@H](C)[C@@H](OC(=O)N4CCN(C)CC4)/C=C/[C@@H]3C)c2)C1 [Compound 39]	26 nM	63.1 nM	32 nM	−89.747%	50.1 nM	45.6 nM	−97.412%							
C/C(=C\c1ccc2cn[nH]c2c1)[C@H]1OC(=O)C[C@H](O)CC[C@H](C)[C@@H](OC(=O)N2CCN(C)CC2)/C=C/[C@@H]1C [Compound 4]	3.8 nM	> 25000 nM	58.7 nM	−27.423%	26.9 nM	15.5 nM	−46.416%							
C/C(=C\c1cc(F)cc(N2CCN(C(=O)CC3CC3)CC2)c1)[C@H]1OC(=O)C[C@H](O)CC[C@H](C)[C@@H](OC(=O)N2CCN(C)CC2)/C=C/[C@@H]1C [Compound 121]	2.99 nM	25.5 nM	22 nM	−88.956%	3.73 nM	2.66 nM	−80.331%							
C/C(=C\c1cc(F)cc(N2CCOCC2)c1)[C@H]1OC(=O)C[C@H](O)CC[C@H](C)[C@@H](OC(=O)N2CC[C@H](N(C)C)C2)/C=C/[C@@H]1C [Compound 244, [(2S,3S,4E,6R,7S,10R)-2-[(E)-1-(3-fluoro-5-morpholin-4-ylphenyl)prop-1-en-2-yl]-10-hydroxy-3,7-dimethyl-12-oxo-1-oxacyclododec-4-en-6-yl] (3S)-3-(dimethylamino)pyrrolidine-1-carboxylate]	3.38 nM	3580 nM	38.5 nM					93.018	−95.630%	27.6 nM	−65.165%	20.2 nM		
C/C(=C\c1cccc(S(=O)(=O)N2CCC(O)CC2)c1)[C@H]1OC(=O)C[C@H](O)CC[C@H](C)[C@@H](OC(=O)N2CCN(C)CC2)/C=C/[C@@H]1C [Compound 95]	2.32 nM	10.3 nM	10 nM	−93.120%			−73.174%						2.59 nM	2.51 nM
C/C(=C\c1cc(F)cc(N2CCOC[C@@H]2CO)c1)[C@H]1OC(=O)C[C@H](O)CC[C@H](C)[C@@H](OC(=O)N2CCN(C)CC2)/C=C/[C@@H]1C [Compound 77]	1.78 nM	16.1 nM	13.3 nM	−86.524%	3.9 nM	1.79 nM	−82.189%							
C/C(=C\c1cc(F)cc(N2CC[C@@H](O)C2)c1)[C@H]1OC(=O)C[C@H](O)CC[C@H](C)[C@@H](OC(=O)N2CCN(C)CC2)/C=C/[C@@H]1C [Compound 34]	3.18 nM	56.5 nM	26.9 nM	−85.656%			−55.438%						14 nM	9.46 nM
C/C(=C\c1cc(F)cc(N2C[C@@H](C)O[C@@H](C)C2)c1)[C@H]1OC(=O)C[C@H](O)CC[C@H](C)[C@@H](OC(=O)N2CCC(N3CCCCC3)CC2)/C=C/[C@@H]1C [Compound 16]	57 nM	100 nM	39.2 nM	−85.810%	41.5 nM	59.1 nM	−88.977%							
C/C(=C\c1cccc(N2CCNCC2)c1)[C@H]1OC(=O)C[C@H](O)CC[C@H](C)[C@@H](OC(=O)N2CCN(C)CC2)/C=C/[C@@H]1C [Compound 1]	19.8 nM	28.9 nM	18.7 nM	−79.550%	54.8 nM	61.2 nM	−71.582%							
CN[C@@H]1CCN(c2cccc(/C=C(\C)[C@H]3OC(=O)C[C@H](O)CC[C@H](C)[C@@H](OC(=O)N4CCN(C)CC4)/C=C/[C@@H]3C)c2)C1 [Compound 9]	14.9 nM	107 nM	27 nM	−87.085%	63.9 nM	116 nM	−83.308%							
C/C(=C\c1cnn(Cc2ccncc2)c1)[C@H]1OC(=O)C[C@H](O)CC[C@H](C)[C@@H](OC(=O)N2CCN(C)CC2)/C=C/[C@@H]1C [Compound 102]	29.8 nM	> 25000 nM	507 nM	24.371%	3020 nM	4900 nM	31.099%							
C/C(=C\c1cc(F)cc(N2CC[C@H](NS(C)(=O)=O)C2)c1)[C@H]1OC(=O)C[C@H](O)CC[C@H](C)[C@@H](OC(=O)N2CCN(C)CC2)/C=C/[C@@H]1C [Compound 217, [(2S,3S,4E,6R,7S,10R)-2-[(E)-1-[3-fluoro-5-[(3S)-3-(methanesulfonamido)pyrrolidin-1-yl]phenyl]prop-1-en-2-yl]-10-hydroxy-3,7-dimethyl-12-oxo-1-oxacyclododec-4-en-6-yl] 4-methylpiperazine-1-carboxylate]	3.18 nM	18.4 nM	16.6 nM					1.107	−91.288%	15 nM	−71.339%	13.8 nM		
C/C(=C\c1cccc(COC(=O)N2CC[C@@H](F)C2)c1)[C@H]1OC(=O)C[C@H](O)CC[C@H](C)[C@@H](OC(=O)N2CCN(C)CC2)/C=C/[C@@H]1C (single isomer, unassigned) [Compound 256]	15.6 nM	> 25000 nM	112 nM					222.862	−88.839%	43.4 nM	−5.090%	60.9 nM		
